Assay results published in patent US20030149084A1, “Cytostatic agents” (priority 1998, published 2003).

Test system: not given
Assay: not given
Settings: not given

melting point | Structure (SMILES)
85 to 87 °C | CCCC[C@H](CN(O)C=O)C(=O)N[C@H](C(=O)OCC)C(C)(C)C [Example 12, 2S-{2R-[(Formyl-hydroxy-amino)-methyl]-hexanoylamino}-3,3-dimethyl Butyric Acid Ethyl Ester]
63.5 to 64.5 °C | CCCC[C@H](CN(O)C=O)C(=O)N[C@H](C(=O)OC)C(C)(C)C [Example 5, 2S-{2R-[(Formyl-hydroxy-amino)-methyl]-hexanoylamino}-3,3-dimethyl Butyric Acid Methyl Ester]
142 to 145 °C | CCCC[C@H](CN(O)C=O)C(=O)N[C@H](C(=O)OC(C)C)c1ccccc1 [Example 11, S-{2R-[(Formyl-hydroxy-amino)-methyl]-hexanoylamino}-2-phenyl Acetic Acid Iso-Propyl Ester]
95 to 98 °C | CCCC[C@H](CN(O)C=O)C(=O)N[C@@H](Cc1ccccc1)C(=O)OC(C)(C)C [Example 22, 2S-{2R-[(Formyl-hydroxy-amino)-methyl]-hexanoylamino}-3-phenyl-propionic Acid Tert-Butyl Ester]
134 to 136 °C | CCCC[C@H](CN(O)C=O)C(=O)N[C@H](C(=O)OCC)c1ccccc1 [Example 10, 2S-{2R-[(Formyl-hydroxy-amino)-methyl]-hexanoylamino}-2-phenyl Acetic Acid Ethyl Ester]
119 to 120 °C | CCCC[C@H](CN(O)C=O)C(=O)N[C@H](C(=O)OC1CCCC1)c1ccccc1 [Example 13, S-{2R-[(Formyl-hydroxy-amino)-methyl]-hexanoylamino}-2-phenyl Acetic Acid Cyclo-Pentyl Ester]

Test system: human histiocytic lymphoma cell line (U937)
Assay: U937 cell proliferation assay (methyl-3H thymidine incorporation)
Assay type: cell-based
Settings: Homo sapiens, U-937, U937 cells; test compound 6 μM; 72 hours in culture, 3 hours pulse; control DMSO 0.08%; n=6
Experimental: The compounds of examples 1 to 10 were tested the following cell proliferation assay, to determine their respective capacities to inhibit proliferation.
A human histiocytic lymphoma cell line (U937) was seeded into 30 mm^2 tissue culture wells, in the appropriate culture medium supplemented with 10% fetal calf serum at a density of 250 cells/mm^2. Six hours later the test compounds were added in the same culture medium to the cells to give a final concentration of 6 μM. Control wells contained cells supplemented with the same culture medium containing the equivalent amount of drug vehicle, which in this case was DMSO at a final concentration of 0.08%. After 72 hours in culture the cells were pulsed for 3 hours with methyl-^3H Thymidine (20 μCi/ml) and then harvested onto filter mats and DNA associated radioactivity counted. Results are expressed as percentage of control methyl-^3H Thydimine incorporation (n=6±1 stdv).

Structure (SMILES) | activity at 6 µM
CCCC[C@H](CN(O)C=O)C(=O)N[C@H](C(=O)OCC)C(C)(C)C [Example 12, 2S-{2R-[(Formyl-hydroxy-amino)-methyl]-hexanoylamino}-3,3-dimethyl Butyric Acid Ethyl Ester] | 77%
CCCC[C@H](CN(O)C=O)C(=O)N[C@H](C(=O)OC)C(C)(C)C [Example 5, 2S-{2R-[(Formyl-hydroxy-amino)-methyl]-hexanoylamino}-3,3-dimethyl Butyric Acid Methyl Ester] | 86%
CCCC[C@H](CN(O)C=O)C(=O)N[C@H](C(=O)OCCOC)C(C)(C)C [Example 16, 2S-{2R-[(Formyl-hydroxy-amino)-methyl]-hexanoylamino}-3,3-dimethyl Butyric Acid 2-methoxy-ethyl Ester] | 89%
CCCC[C@H](CN(O)C=O)C(=O)N[C@@H](Cc1ccccc1)C(=O)OC [Example 7] | 0%
CCC[C@@H]([C@@H](CC(C)C)C(=O)N[C@H](C(=O)OCCOC)c1ccccc1)N(O)C=O [Example 26, S-[3S-(Formyl-hydroxy-amino)-2R-isobutyl-hexanoylamino]-phenyl-acetic Acid Methoxyethyl Ester] | 10%
CCCC[C@H](CN(O)C=O)C(=O)N[C@H](C(=O)OC(C)C)c1ccccc1 [Example 11, S-{2R-[(Formyl-hydroxy-amino)-methyl]-hexanoylamino}-2-phenyl Acetic Acid Iso-Propyl Ester] | 36%
CCCC[C@H](CN(O)C=O)C(=O)N[C@H](C(=O)OC1CCCCC1)C(C)(C)C [Example 15, 2S-{2R-[(Formyl-hydroxy-amino)-methyl]-hexanoylamino}-3,3-dimethyl Butyric Acid Cyclohexyl Ester] | 75%
CCCC[C@H](CN(O)C=O)C(=O)N[C@H](C(=O)OC(C)(C)C)c1ccccc1 [Example 21, S-{2R-[(Formyl-hydroxy-amino)-methyl]-hexanoylamino}-2-phenyl Acetic Acid Tert-Butyl Ester] | 90%
CCCC[C@H](CN(O)C=O)C(=O)N[C@H](C(=O)OC(C)C)C(C)(C)C [Example 9, 2S-{2R-[(Formyl-hydroxy-amino)-methyl]-hexanoylamino}-3,3-dimethyl Butyric Acid Iso-Propyl Ester] | 81%
CCCC[C@H](CN(O)C=O)C(=O)N[C@@H](Cc1ccccc1)C(=O)OC(C)C [Example 19, 2S-{2R-[(Formyl-hydroxy-amino)methyl]-hexanoylamino}-3-phenyl-propionic Acid Iso-Propyl Ester] | 0%
CCC[C@@H]([C@@H](CC(C)C)C(=O)N[C@H](C(=O)OCC1CCCC1)c1ccccc1)N(O)C=O [Example 32, S-[3S-(Formyl-hydroxy-amino)-2R-isobutyl-hexanoylamino]-phenyl-acetic Acid Cyclopentylmethyl Ester] | 8%
CCCC[C@H](CN(O)C=O)C(=O)N[C@H](C(=O)OC1CCCC1)C(C)(C)C [Example 3, 2S-{2R-[(Formyl-hydroxy-amino)-methyl]-hexanoylamino}-3,3-dimethyl Butyric Acid Cyclopentyl Ester] | 80%
CCCC[C@H](CN(O)C=O)C(=O)N[C@@H](Cc1ccccc1)C(=O)OC(C)(C)C [Example 22, 2S-{2R-[(Formyl-hydroxy-amino)-methyl]-hexanoylamino}-3-phenyl-propionic Acid Tert-Butyl Ester] | 53%
CCC[C@@H]([C@@H](Cc1ccccc1)C(=O)N[C@H](C(=O)OCCOC)c1ccccc1)N(O)C=O [Example 29, S-[2R-Benzyl-3S-(formyl-hydroxy-amino)hexanoylamino]-phenyl-acetic Acid Methoxyethyl Ester] | 0%
CCC[C@@H]([C@@H](CC(C)C)C(=O)N[C@@H](COC(C)(C)C)C(=O)OC1CCCC1)N(O)C=O [Example 23, 3-tert-Butoxy-2S-[3S-(formyl-hydroxy-amino)-2R-isobutyl-hexanoylamino]-propionic Acid Cyclopentyl Ester] | 5%
CCC[C@@H]([C@@H](CC(C)C)C(=O)N[C@H](C(=O)OCC)c1ccccc1)N(O)C=O [Example 25, S-[3S-(Formyl-hydroxy-amino)-2R-isobutyl-hexanoylamino]-phenyl-acetic Acid Ethyl Ester] | 3%
CCCC[C@H](CN(O)C=O)C(=O)N[C@@H](Cc1ccccc1)C(=O)OC1CCCC1 [Example 4, S-{2R-[(Formyl-hydroxy-amino)-methyl]-hexanoylamino}-3-phenyl-propionic Acid Cyclopentyl Ester] | 0%
CCCC[C@H](CN(O)C=O)C(=O)N[C@@H](Cc1ccccc1)C(=O)OCC [Example 8, 2S-{2R-[(Formyl-hydroxy-amino)-methyl]-hexanoylamino)-3-phenyl-propionic Acid Ethyl Ester] | 0%
CCC[C@@H]([C@@H](CC(C)C)C(=O)N[C@H](C(=O)OC1CCCC1)c1ccccc1)N(O)C=O [Example 33, S-[3S-(Formyl-hydroxy-amino)-2R-isobutyl-hexanoylamino]-phenyl-acetic Acid Cyclopentyl Ester] | 0%
CCCC[C@H](CN(O)C=O)C(=O)N[C@H](C(=O)OC)c1ccccc1 [Example 20, S-{2R-[(Formyl-hydroxy-amino)-methyl]-hexanoylamino}-2-phenyl Acetic Acid Methyl Ester] | 53%
CCC[C@@H]([C@@H](Cc1ccccc1)C(=O)N[C@H](C(=O)OC1CCCC1)c1ccccc1)N(O)C=O [Example 28, S-[2R-Benzyl-3S-(formyl-hydroxy-amino)hexanoylamino]-phenyl-acetic Acid Cyclopentyl Ester] | 0%
CCCC[C@H](CN(O)C=O)C(=O)N[C@H](C(=O)OCC)c1ccccc1 [Example 10, 2S-{2R-[(Formyl-hydroxy-amino)-methyl]-hexanoylamino}-2-phenyl Acetic Acid Ethyl Ester] | 7%
CCCC[C@H](CN(O)C=O)C(=O)N[C@H](C(=O)OCC1CCCC1)C(C)(C)C [Example 18, 2S-{2R-[(Formyl-hydroxy-amino)-methyl]-hexanoylamino}-3,3-dimethyl Butyric Acid Cyclopentylmethyl Ester] | 60%
CCC[C@@H]([C@@H](Cc1ccccc1)C(=O)N[C@@H](Cc1ccccc1)C(=O)OC1CCCC1)N(O)C=O [Example 27, 2S-[2R-Benzyl-3S-(formyl-hydroxy-amino)hexanoylamino]-3-phenyl-propionic Acid Cyclopentyl Ester] | 0%
CCC[C@@H]([C@@H](Cc1ccccc1)C(=O)N[C@@H](COC(C)(C)C)C(=O)OC1CCCC1)N(O)C=O [Example 24, 2S-[2R-Benzyl-3S-(formyl-hydroxy-amino)-hexanoylamino]-3-tert-butoxypropionic Acid Cyclopentyl Ester] | 0%
CC(C)C[C@@H](C(=O)N[C@@H](Cc1ccccc1)C(=O)OC1CCCC1)C(C)N(O)C=O (single isomer, unassigned) [Example 2, diastereomer A] | 21%
CCCC[C@H](CN(O)C=O)C(=O)N[C@H](C(=O)OC1CCC1)C(C)(C)C [Example 14, 2S-{2R-[(Formyl-hydroxy-amino)-methyl]-hexanoylamino}-3,3-dimethyl Butyric Acid Cyclobutyl Ester] | 74%

Same assay, conditions: U937 cells; 6 μM; comparison compound

Structure (SMILES) | activity in the U937 assay, % of that observed with the vehicle alone
O=c1[nH]cc(F)c(=O)[nH]1 [5-fluorouracil, reference compound] | 50%

Same assay, conditions: U937 cells; test compound 6 μM; 72 hours in culture, 3 hours pulse; control DMSO 0.08%; n=6

Structure (SMILES) | % of Control methyl-^3H Thymidine Incorporation
CCCC[C@H](CN(O)C=O)C(=O)N[C@H](C(=O)OC1CCCC1)C(C)C [Example 6, 2S-{2R-[(Formyl-hydroxy-amino)-methyl]-hexanoylamino}-3-methyl Butyric Acid Cyclo-Pentyl Ester] | 0%

Same assay, conditions: U937 cells; test compound 6 μM; 72 hours in culture, 3 hours pulse; control DMSO 0.08%; n=6; 6 µM

Structure (SMILES) | % of Control methyl-^3H Thymidine Incorporation
O=CN(O)CC(Cc1ccccc1)C(=O)N[C@@H](Cc1ccccc1)C(=O)OC1CCCC1 (single isomer, unassigned) [Example 1, diastereomer A, 2S-[2-benzyl-3-(formyl-hydroxy-amino)propionylamino]-3-phenyl-propionic acid cyclopentyl ester] | 0%
CC(C)C[C@@H](C(=O)N[C@@H](Cc1ccccc1)C(=O)OC1CCCC1)C(C)N(O)C=O (single isomer, unassigned) [Example 2, diastereomer B] | 17%
O=CN(O)CC(Cc1ccccc1)C(=O)N[C@@H](Cc1ccccc1)C(=O)OC1CCCC1 (single isomer, unassigned) [Example 1, diastereomer B, 2S-[2-benzyl-3-(formyl-hydroxy-amino)propionylamino]-3-phenyl-propionic acid cyclopentyl ester] | 73%
